Data set [1] relates to HUVECs. Kind of data set: Tube formation (angiogenesis) in Matrigel. Format: cell-based, human. To be noted: 12 hours, 1 and 10 μM, vs control. The method, then: Cells in Matrigel were treated with A) DMSO, B) 1 μM or C) 10 μM IPA/NO-aspirin, D) 1 μM or E) 10 μM DEA/NO-aspirin at 37° C., and the extent of tube formation was measured after 12 h using a microscope.
The impact of the NONO-aspirin prodrugs on tube formation in HUVECs after 12 hours treatment was examined as a measure of angiogenesis.

Data set [2] relates to MDA-MB-231 cells. The data set can be described thus: Oxidation of DCF (oxidant level) in cells. The class given is cell-based, human. The settings on record: 100 μM, 37° C., MDA-MB-231 as representative example.
Method: DCF loaded cells were treated with IPA/NO-aspirin (blue), DEA/NO-aspirin (green), IPA/NO (magenta), DEA/NO (brown), aspirin (red) or DMSO (0.1%; black) at 37° C., and the fluorescence at 535 nm was measured in a time-dependent manner. Data are plotted as mean±SD (n=4).
A further data set deals with lung carcinoma cells. To be noted: selective compared to normal endothelial cells, read-out: IC50 (proliferation); cited from earlier work.
Data set [3] relates to cleaved PARP in MDA-MB-231 cells. The data set can be described thus: PARP cleavage by Western blot. The class given is cell-based, human. To be noted: 1-44 h, preliminary analysis. On the procedure: The cells were treated with 50 μM IPA/NO-aspirin (blue) or 75 μM DEA/NO-aspirin (green), respectively at 37° C., and protein was collected at various time points (1-44 h). Lanes 1-6 (20 μg of protein): IPA/NO-aspirin at 1, 3, 6, 10, 20, 44 h; […]: DEA/NO-aspirin at 1, 6, 10, 20, 30, 44 h; Lane 15: control. Cleaved PARP levels at different time points were quantified by Western blot with respect to control, which was treated as 100%. HPRT was used as the loading control.
Since a number of chemotherapies and radiation therapy are based on inducing DNA damage in cancer cells, inhibition of PARP by HNO donors may increase the efficacy of these treatments. Furthermore, IPA/NO-aspirin is able to not only induce DNA damage but also to impede DNA repair.

In another data set the test system is caspase-3. Kind of data set: Caspase-3 activity in breast cancer cells. Format: cell-based, human. To be noted: MDA-MB-231, MDA-MB-468, MCF-7; 0-100 μM, 24 h, 37° C. The method, then:
The cells were treated with various concentrations (0, 25, 50, 100 μM) of IPA/NO-aspirin (blue) or DEA/NO-aspirin (green) for 24 h at 37° C. Caspase-3 activity was determined by recording the fluorescence ( ? 485 nm, ? 535 nm) of the product formed by cleavage of the substrate, N-Ac-DEVD-N′-MC-R11. Data are plotted as mean±SD (n=3).
Caspases are cysteine-aspartate proteases that can trigger apoptosis through a signaling cascade. Caspase-3 is an effector protease that has active cysteine residues that are susceptible to S-nitrosation. The impact of this modification has been variously reported to lead to reversible inhibition and to activation.

Data set [4] concerns HUVECs. Kind of data set: Cytotoxicity toward HUVECs. Format: cell-based, human. The settings on record: previously determined.
The nature of data set [5]: Stability in phosphate buffer pH 7.4. The class given is physicochemical. On the procedure: The newly synthesized HNO-releasing aspirin (IPA/NO-aspirin, 4) and NO-releasing aspirin (DEA/NO-aspirin, 8) were evaluated for the kinetic profile of NO and HNO release in buffer and cells.
Data set [6] in a line: Prodrug decomposition in cells. Format: in vitro ADME. The settings on record: A549 cells.
Another data set deals with MDA-MB-231 xenografts. The data set can be described thus: MDA-MB-231-GFP xenograft growth and brain metastasis in nude mice. Format: in vivo. The settings on record: daily injection of equimolar doses for five weeks; for size of the primary tumor (GFP fluorescence intensity, tumor mass): vs control.
A further data set relates to MCF-7 cells. The data set can be described thus: MTT cell viability. The class given is cell-based, human. The settings on record: read-out: concentration for 50% reduction of viability (IC50), MCF-7, 48 h, mean ± SD for three trials. On the procedure: (§1) Figures are representative of three trials with data plotted as mean percentage versus untreated cells±SD of the four replicates per plate). Vehicle (DMSO or 10 mM NaOH) was added as a control to otherwise untreated cells.
(§2) For examples utilizing cell culture methods, the following procedure was instituted. Human breast adenocarcinoma cells (MDA-MB-231, MCF-7 and MDA-MB-468; American Type Culture Collection, Manassas, Va.) were grown as monolayers in RPMI 1640 (Invitrogen, Carlsbad, Calif.) supplemented with 10% FBS (Hyclone, Thermo Fisher Scientific Inc., Waltham, Mass.), penicillin (50 units mL^−1) and streptomycin ([…]; Life Technologies, Inc., Grand Island, N.Y.). Non-tumorigenic, human breast epithelial cells (MCF-10A; American Type Culture Collection) and HUVECs (Cell Applications, Inc., San Diego, Calif.) were grown as monolayers in endothelial growth media (Lonza Inc., US-Allendale, N.J. or Cell Applications, Inc., San Diego, Calif.). Cells were seeded at a density of 1×10^6 cells per 100 cm^2 culture dish and were incubated at 37° C. in 5% CO2 at 80% relative humidity. Single-cell suspensions were obtained by trypsinization (0.05% trypsin/EDTA, Invitrogen, Carlsbad, Calif.). MDA-MB-231 cells stably transfected with green fluorescent protein (GFP) and G418 antibiotic resistance gene were a generous gift from Dr. Aldona Karaczyn from the Maine Medical Center Research Institute, Scarborough, Me. MDA-MB-231-GFP cells were grown as described for MDA-MB-231 cells with the addition of […] ([…]) to ensure vector presence.
(§3) In this example, the impact of IPA/NO-aspirin and DEA/NO-aspirin was assessed compared to aspirin or the parent diazeniumdiolate on proliferation of four human breast cell lines: MDA-MB-231 (ER(−) adenocarcinoma), MDA-MB-468 (ER(−) adenocarcinoma), MCF-7 (ER(+) adenocarcinoma) and MCF-10A (non-tumorigenic, immortalized human breast epithelial cells).

For data set [7], the system named is MDA-MB-231 cells. Kind of data set: MTT cell viability. The class given is cell-based, human. The settings on record: read-out: concentration for 50% reduction of viability (IC50), MDA-MB-231, 48 h, mean ± SD for three trials. On the procedure: as §1, §2, §3
In another data set the test system is MCF-10A cells. The data set can be described thus: MTT cell viability. The settings on record: read-out: concentration for 50% reduction of viability (IC50), 48 h, did not reach a 50% reduction at 200 μM. The class given is cell-based, human. On the procedure: as §1, §2, §3
For another data set, the system named is MDA-MB-468 cells. Kind of data set: MTT cell viability. The class given is cell-based, human. The settings on record: read-out: concentration for 50% reduction of viability (IC50), MDA-MB-468, 48 h, mean ± SD for three trials. On the procedure:
as §1, §2, §3

A value given as a limit tells only on which side of the number the result lay.

Method for MDA-MB-231 xenografts: The cells were allowed to grow for 14 d, and the animals (40) were randomly divided into four groups (control, aspirin, IPA/NO-aspirin or DEA/NO-aspirin). Treated groups were injected daily with equimolar doses of DEA/NO-aspirin or IPA/NO-aspirin (16 mg kg^−1) or aspirin (9 mg kg^−1)) or with DMSO for the next five weeks.
For examples utilizing mouse tumor model methods, the following procedure was instituted. Analysis of tumor growth was carried out using protocols approved by the Committee on the Ethics of Animal Experiments of the National Cancer Institute (RBB-144) and adhered with the recommendations in the United States National Research Council's “Guide for the Care and Use of Laboratory Animals,” the United States Public Health Service's “Guide for the Care and Use of Laboratory Animals” and the “Policy on Humane Care and Use of Laboratory Animals”. The vivarium was maintained at 23° C. on a 12 h light/12 h dark cycle with ad libitum access to food and water. Nude mice (n=40) under general anesthesia were implanted with 7.5×10^5 MDA-MB-231 cells transfected with GFP by injection underneath the fourth left mammary gland. Prior to implantation, pedal withdrawal and eyelid reflexes were examined to ensure that mice were under stage III of anesthesia. At 14 days post-inoculation, the mice were randomly divided into four groups and treated by daily injection of equimolar doses (10 μL of 100 mM stock) of aspirin (9.00 mg kg^−1), IPA/NO-aspirin (15.8 mg kg^−1) or DEA/NO-aspirin (16.3 mg kg^−1) or with vehicle (DMSO). After five weeks, the tumor size was measured using in vivo fluorescent imaging for quantification of the GFP tag. In brief, mice were under general anesthesia throughout the whole body imaging process, and GFP signals were captured and quantified in an Xenogen IVIS 100 Imaging System according to the manufacturer's protocol. To assess metastasis in the brain, the animals were subsequently sacrificed following the approved method and guidelines.

Turning to `CC(=O)Oc1ccccc1C(=O)OCON=[N+]([O-])NC(C)C` [IPA/NO-aspirin, O2-(Acetylsalicyloyloxymethyl)-1-(N-isopropylamino)-diazen-1-ium-1,2-diolate], the “angiogenesis (tube formation)” value with HUVECs [1] was “reduced angiogenesis”. In the data set with MDA-MB-231 cells [2], the “oxidation of DCF (fluorescence intensity)” value is on record as “significant increase in fluorescence intensity”. Also, the IC50 was 100 µM with lung carcinoma cells; 93 ± 2 µM in the data set on MCF-7 cells; 92 ± 1 µM with MDA-MB-231 cells [7]; greater than 200 µM with MCF-10A cells; 81 ± 2 µM with MDA-MB-468 cells. For the same compound, the “level of cleaved PARP” value in data set [3] (50 μM) is “increases the level of cleaved PARP in a longer-term fashion”. Further, the caspase-3 activity entry in the data set with caspase-3 is given as “activated caspase-3 in all three breast cancer lines”. In addition, the “cytotoxicity toward HUVECs” value with HUVECs [4] is given as “neither IPA/NO-aspirin or DEA/NO-aspirin are appreciably cytotoxic”. Also, the stability in buffer entry in data set [5] was “relatively stable in phosphate buffer pH 7.4 for several hours”. In addition, in data set [6], the “time to complete decomposition in cells” value was “approximately 3 hours”. Besides, the “metastasis to the brain (GFP fluorescence)” value in the data set on MDA-MB-231 xenografts was “decreased metastasis compared to aspirin and untreated controls, the results were not statistically significant”. Also, the “size of the primary tumor (GFP fluorescence intensity, tumor mass)” value in the data set with MDA-MB-231 xenografts was “significant decrease”.
Consider `CCN(CC)[N+]([O-])=NOCOC(=O)c1ccccc1OC(C)=O` [DEA/NO-aspirin, O2-(Acetylsalicyloyloxymethyl)-1-(N,N-Diethylamino)-diazen-1-ium-1,2-diolate], for which the “angiogenesis (tube formation)” value with HUVECs [1] was “reduced angiogenesis”. For the same compound, the “oxidation of DCF (fluorescence intensity)” value with MDA-MB-231 cells [2] is “minimal impact”. For the same compound, the IC50 in the data set on lung carcinoma cells was 100 µM; in the data set on MCF-7 cells it was 122 ± 3 µM; in the data set on MDA-MB-231 cells [7] it was 102 ± 10 µM; in the data set with MCF-10A cells, greater than 200 µM; in the data set with MDA-MB-468 cells, 90 ± 4 µM. Also, the “level of cleaved PARP” value in [3] (75 μM) was “relatively short-lived”. Further, the caspase-3 activity result in the data set with caspase-3 is “more modest in MDA-MB-231 and MCF7 cells”. Besides, the “cytotoxicity toward HUVECs” value in the data set with HUVECs [4] was “neither IPA/NO-aspirin or DEA/NO-aspirin are appreciably cytotoxic”. For the same compound, in [5], the stability in buffer result is “relatively stable in phosphate buffer pH 7.4 for several hours”. Also, the “lifetime in cells relative to IPA/NO-aspirin” value in data set [6] is “about three times longer-lived”. In addition, the “metastasis to the brain (GFP fluorescence)” value with MDA-MB-231 xenografts is “decreased metastasis compared to aspirin and untreated controls, the results were not statistically significant”. In the data set on MDA-MB-231 xenografts, the “size of the primary tumor (GFP fluorescence intensity, tumor mass)” value is “substantial, although not statistically significant, reduction”.
